Data reported in patent US8987195B2 (priority 2012, dated 2015).

The compounds below were run on HCV genotype 1b replicon (assay: HCV replicon assay, genotype 1b replicon EC50). Details: Hepatitis C virus, genotype 1b replicon; read-out: EC50 [gt-1b].
Format: cell-based, Hepatitis C virus
Experimental: Measuring Compound Inhibitory Potency (Genotype 1b Replicon EC50 (nM))
Measurement of inhibition by compounds was performed using the HCV replicon system. Several different replicons encoding different HCV genotypes or mutations were used. In addition, potency measurements were made using different formats of the replicon assay, including different ways of measurements and different plating formats. See Jan M. Vrolijk et al., A replicons-based bioassay for the measurement of interferons in patients with chronic hepatitis C, 110 J. VIROLOGICAL METHODS 201 (2003); Steven S. Carroll et al., Inhibition of Hepatitis C Virus RNA Replication by 2′-Modified Nucleoside Analogs, 278(14) J. BIOLOGICAL CHEMISTRY 11979 (2003). However, the underlying principles are common to all of these determinations, and are outlined below.
Stable neomycin phosphotransferase encoding replicon-harboring cell lines were used, so all cell lines were maintained under G418 selection prior to the assay. In some cases the cell lines encoded a luciferase:Neo^r fusion and could be assayed either directly by determination of RNA copy number, or indirectly through measurement of the luciferase activity.
To initiate an assay, replicon cells were plated in the presence of a dilution series of test compound in the absence of G418. Typically, the assays were performed in a 96-well plate format for manual operation, or a 384 well plate in an automated assay. Replicon cells and compound were incubated for 24-48 hours, depending on the assay. At the end of the assay, cells are washed free of media and compound and then lysed. For direct quantitation, RNA levels were measured by ^32P-probe hybridization and protection, or in a TAQMAN based assay and normalized to cellular cyclophilin A RNA levels. In some cases, luciferase activity was measured using a conventional luciferase assay. In all cases EC50 determinations were calculated as a percent of a DMSO control by fitting the data to a four parameter fit function.
CC(C)(C)OC(=O)N[C@H]1CCCCC/C=C\[C@@H]2C[C@@]2(C(=O)NS(=O)(=O)C2(C)CC2)NC(=O)[C@@H]2C[C@]3(CCc4c(c(-c5cccc(F)c5)nc5ccccc45)O3)CN2C1=O [Example 13, tert-Butyl (2R,6S,13aS,14aR,16aS,Z)-5′-(3-fluorophenyl)-14a-(1-methylcyclopropylsulfonylcarbamoyl)-5,16-dioxo-1′,2′,3,5,6,7,8,9,10,11,13a,14,14a,15,16,16a-hexadecahydro-1H-spiro[cyclopropa[e]pyrrolo[1,2-a][1,4]diazacyclopentadecine-2,3′-pyrano[2,3-c]quinoline-]-6-ylcarbamate] gave an EC50 of 4.23 nM.
Compound CC(C)(C)OC(=O)N[C@H]1CCCCC/C=C\[C@@H]2C[C@@]2(C(=O)NS(=O)(=O)C2(C)CC2)NC(=O)[C@@H]2C[C@@]3(CCc4c(c(-c5cccc(F)c5)nc5ccccc45)O3)CN2C1=O [Example 14, tert-Butyl (2S,6S,13aS,14aR,16aS,Z)-5′-(3-fluorophenyl)-14a-(1-methylcyclopropylsulfonylcarbamoyl)-5,16-dioxo-1′,2′,3,5,6,7,8,9,10,11,13a,14,14a,15,16,16a-hexadecahydro-1H-spiro[cyclopropa[e]pyrrolo[1,2-a][1,4]diazacyclopentadecine-2,3′-pyrano[2,3-c]quinoline]-6-ylcarbamate] has an EC50 of 6.5 nM.
CC(C)(C)OC(=O)N[C@H]1CCCCC/C=C\[C@@H]2C[C@@]2(C(=O)NS(=O)(=O)C2CC2)NC(=O)[C@@H]2C[C@]3(CCc4c(c(-c5cccc(F)c5)nc5ccccc45)O3)CN2C1=O [Example 15, tert-Butyl (2R,6S,13aS,14aR,16aS,Z)-14a-(cyclopropylsulfonylcarbamoyl)-5′-(3-fluorophenyl)-5,16-dioxo-1′,2′,3,5,6,7,8,9,10,11,13a,14,14a,15,16,16a-hexadecahydro-1H -spiro[cyclopropa[e]pyrrolo[1,2-a][1,4]diazacyclopentadecine-2,3′-pyrano[2,3-c]quinoline]-6-ylcarbamate] gave an EC50 of 9.36 nM.
For CC(C)(C)OC(=O)N[C@H]1CCCCC/C=C\C2CC2(C(=O)NS(=O)(=O)C2(C)CC2)NC(=O)C2C[C@]3(CCc4c(c(C5CC5)nc5ccccc45)O3)CN2C1=O (stereo partly drawn) [Example 18, tert-Butyl (2R,6S,13aS,14aR,16aS,Z)-5′-cyclopropyl-14a-(1-methylcyclopropylsulfonylcarbamoyl)-5,16-dioxo-1′,2′,3,5,6,7,8,9,10,11,13a,14,14a,15,16,16a-hexadecahydro-1H-spiro[cyclopropa[e]pyrrolo[1,2-a][1,4]diazacyclopentadecine-2,3′-pyrano[2,3-c]quinoline-]-6-ylcarbamate], the EC50 was 0.77 nM.
In the case of CC(C)COC(=O)N[C@H]1CCCCC/C=C\[C@@H]2C[C@@]2(C(=O)NS(=O)(=O)C2(C)CC2)NC(=O)[C@@H]2C[C@]3(CCc4c(c(-c5cccc(F)c5)nc5ccccc45)O3)CN2C1=O [Example 21, Isobutyl (2R,6S,13aS,14aR,16aS,Z)-5′-(3-fluorophenyl)-14a-(1-methylcyclopropylsulfonylcarbamoyl)-5,16-dioxo-1′,2′,3,5,6,7,8,9,10,11,13a,14,14a,15,16,16a-hexadecahydro-1H-spiro[cyclopropa[e]pyrrolo[1,2-a][1,4]diazacyclopentadecine-2,3′-pyrano[2,3-c]quinoline]-6-ylcarbamate], the EC50 is reported as 0.81 nM.
CC1(OC(=O)N[C@H]2CCCCC/C=C\[C@@H]3C[C@@]3(C(=O)NS(=O)(=O)C3(C)CC3)NC(=O)[C@@H]3C[C@]4(CCc5c(c(-c6cccc(F)c6)nc6ccccc56)O4)CN3C2=O)CC1 [Example 22, 1-Methylcyclopropyl (2R,6S,13aS,14aR,16aS,Z)-5′-(3-fluorophenyl)-14a-(1-methylcyclopropylsulfonylcarbamoyl)-5,16-dioxo-1′,2′,3,5,6,7,8,9,10,11,13a,14,14a,15,16, 16a-hexadecahydro-1H-spiro[cyclopropa[e]pyrrolo[1,2-a][1,4]diazacyclopentadecine-2,3′-pyrano[2,3-c]quinoline]-6-ylcarbamate] showed an EC50 of 4.14 nM.
